Four compounds from paper PMC8550792, “Evolution of kinase polypharmacology across HSP90 drug discovery” (Cell Chemical Biology, 2021) can be followed below.

Holding throughout (assay): biochemical
Holding throughout (format): biochemical

Experiment [1] has as its target T1, 382 unique human kinases (Homo sapiens, UniProt Q96QT4).
T1 construct: purchased Reaction Biology (HotSpot contract assay)
The note with it: kinase TRPM7/CHAK1, compound 10 uM; for remaining activity at 10 µM: read-out: % Enzyme Activity (relative to DMSO controls).

Experiment [2] concerns the target T2, 382 unique human kinases (Homo sapiens, UniProt P30291).
T2 construct: purchased Reaction Biology (HotSpot contract assay)
To be noted: kinase WEE1, compound 10 uM; for remaining activity at 10 µM: read-out: % Enzyme Activity (relative to DMSO controls).

For experiment [3], the target named is T3, 382 unique human kinases (Homo sapiens, UniProt Q13554).
T3 construct: purchased Reaction Biology (HotSpot contract assay)
The note with it: kinase CAMK2b, compound 10 uM; for remaining activity at 10 µM: read-out: % Enzyme Activity (relative to DMSO controls).

Experiment [4] has as its target T4, 382 unique human kinases (Homo sapiens, UniProt P08581, D1228N).
T4 construct: purchased Reaction Biology (HotSpot contract assay)
To be noted: c-MET (D1228N), compound at 10 uM, duplicate values; for remaining activity at 10 µM: read-out: % Enzyme Activity (relative to DMSO controls).

The target of experiment [5] is T5, 382 unique human kinases (Homo sapiens, UniProt Q02763, Y1108F).
T5 construct: purchased Reaction Biology (HotSpot contract assay)
To be noted: kinase TIE2 (Y1108F), compound 10 uM; for remaining activity at 10 µM: read-out: % Enzyme Activity (relative to DMSO controls).

The target in experiment [6] is T6, 382 unique human kinases (Homo sapiens, UniProt O00418).
T6 construct: purchased Reaction Biology (HotSpot contract assay)
T6 sequence (O00418 1-725): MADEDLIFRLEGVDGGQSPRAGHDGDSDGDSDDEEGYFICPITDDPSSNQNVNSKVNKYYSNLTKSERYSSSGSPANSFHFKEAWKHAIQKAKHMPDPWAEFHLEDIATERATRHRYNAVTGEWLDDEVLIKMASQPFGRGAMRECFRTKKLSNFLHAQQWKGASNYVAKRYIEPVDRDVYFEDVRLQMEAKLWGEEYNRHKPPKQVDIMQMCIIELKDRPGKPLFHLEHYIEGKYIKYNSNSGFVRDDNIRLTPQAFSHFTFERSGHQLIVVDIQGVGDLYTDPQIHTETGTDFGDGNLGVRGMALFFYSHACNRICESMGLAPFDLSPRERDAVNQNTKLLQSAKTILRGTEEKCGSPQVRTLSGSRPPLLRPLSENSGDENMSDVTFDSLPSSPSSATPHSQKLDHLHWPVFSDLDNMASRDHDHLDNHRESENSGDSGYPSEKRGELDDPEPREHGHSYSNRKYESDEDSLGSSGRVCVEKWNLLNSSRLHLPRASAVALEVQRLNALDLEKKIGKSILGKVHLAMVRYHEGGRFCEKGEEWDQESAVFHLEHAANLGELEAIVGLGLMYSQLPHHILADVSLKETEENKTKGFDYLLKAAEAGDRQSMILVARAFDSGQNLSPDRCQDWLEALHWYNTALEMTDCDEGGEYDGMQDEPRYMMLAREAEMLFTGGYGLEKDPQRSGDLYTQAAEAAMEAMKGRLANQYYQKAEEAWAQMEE
To be noted: kinase EEF2K, compound 10 uM; for remaining activity at 10 µM: read-out: % Enzyme Activity (relative to DMSO controls).

In experiment [7] the target is T7, 382 unique human kinases (Homo sapiens, UniProt O75676).
T7 construct: purchased Reaction Biology (HotSpot contract assay)
The note with it: kinase MSK2/RPS6KA4, compound 10 uM; for remaining activity at 10 µM: read-out: % Enzyme Activity (relative to DMSO controls).

In experiment [8] the target is T8, 382 unique human kinases (Homo sapiens, UniProt Q00526).
T8 construct: purchased Reaction Biology (HotSpot contract assay)
The note with it: kinase CDK3/cyclin E, compound 10 uM; for remaining activity at 10 µM: read-out: % Enzyme Activity (relative to DMSO controls).

Experiment [9] concerns the target T9, 382 unique human kinases (Homo sapiens, UniProt Q16539).
T9 construct: purchased Reaction Biology (HotSpot contract assay)
To be noted: kinase P38a/MAPK14, compound 10 uM; for remaining activity at 10 µM: read-out: % Enzyme Activity (relative to DMSO controls).

Experiment [10] addresses T10, 382 unique human kinases (Homo sapiens, UniProt Q06187).
T10 construct: purchased Reaction Biology (HotSpot contract assay)
To be noted: BTK, [ATP] 50 µM, compound 10 uM; for remaining activity at 10 µM: read-out: % Enzyme Activity (relative to DMSO controls).

For experiment [11], the target named is T11, 382 unique human kinases (Homo sapiens, UniProt O60674).
T11 construct: purchased Reaction Biology (HotSpot contract assay)
The note with it: JAK2, [ATP] 2.5 µM, compound 10 uM; for remaining activity at 10 µM: read-out: % Enzyme Activity (relative to DMSO controls).

Experiment [12] concerns the target T12, 382 unique human kinases (Homo sapiens, UniProt P10721, V559D).
T12 construct: purchased Reaction Biology (HotSpot contract assay)
To be noted: c-Kit (V559D), [ATP] 20 µM, compound 10 uM; for remaining activity at 10 µM: read-out: % Enzyme Activity (relative to DMSO controls).

The target of experiment [13] is T13, 382 unique human kinases (Homo sapiens, UniProt Q16513).
T13 construct: purchased Reaction Biology (HotSpot contract assay)
The note with it: PKN2/PRK2, 10 uM; for remaining activity at 10 µM: read-out: % Enzyme Activity (relative to DMSO controls).

Experiment [14] concerns the target T14, 382 unique human kinases (Homo sapiens, UniProt P00519, E255V).
T14 construct: purchased Reaction Biology (HotSpot contract assay)
To be noted: ABL1 (E255V), [ATP] 10 µM, compound 10 uM; for remaining activity at 10 µM: read-out: % Enzyme Activity (relative to DMSO controls).

The target in experiment [15] is T15, 382 unique human kinases (Homo sapiens, UniProt Q9UBE8).
T15 construct: purchased Reaction Biology (HotSpot contract assay)
T15 sequence (Q9UBE8 1-527): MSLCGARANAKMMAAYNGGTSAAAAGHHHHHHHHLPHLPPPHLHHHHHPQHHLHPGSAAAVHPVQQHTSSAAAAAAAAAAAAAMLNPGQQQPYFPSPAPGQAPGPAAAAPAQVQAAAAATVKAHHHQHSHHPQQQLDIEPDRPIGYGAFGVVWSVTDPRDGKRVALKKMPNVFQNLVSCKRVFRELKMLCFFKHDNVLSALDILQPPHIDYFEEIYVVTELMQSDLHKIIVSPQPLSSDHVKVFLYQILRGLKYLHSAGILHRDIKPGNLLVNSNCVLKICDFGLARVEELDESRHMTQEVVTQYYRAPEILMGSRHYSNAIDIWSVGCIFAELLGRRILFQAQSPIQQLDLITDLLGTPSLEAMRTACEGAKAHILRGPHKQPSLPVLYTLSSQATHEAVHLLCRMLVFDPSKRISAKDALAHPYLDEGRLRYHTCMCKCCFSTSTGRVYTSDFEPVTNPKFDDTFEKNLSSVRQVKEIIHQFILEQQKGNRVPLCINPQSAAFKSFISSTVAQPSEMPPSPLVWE
The note with it: NLK, 10 uM; for remaining activity at 10 µM: read-out: % Enzyme Activity (relative to DMSO controls).

Experiment [16] addresses T16, 382 unique human kinases (Homo sapiens, UniProt P23458).
T16 construct: purchased Reaction Biology (HotSpot contract assay)
The note with it: JAK1, 10 uM; for remaining activity at 10 µM: read-out: % Enzyme Activity (relative to DMSO controls).

Experiment [17] addresses T17, 382 unique human kinases (Homo sapiens, UniProt P00533, DEL746-750).
T17 construct: purchased Reaction Biology (HotSpot contract assay)
The note with it: EGFR (d746-750), 10 uM; for remaining activity at 10 µM: read-out: % Enzyme Activity (relative to DMSO controls).

T1 sequence (Q96QT4 whole entry): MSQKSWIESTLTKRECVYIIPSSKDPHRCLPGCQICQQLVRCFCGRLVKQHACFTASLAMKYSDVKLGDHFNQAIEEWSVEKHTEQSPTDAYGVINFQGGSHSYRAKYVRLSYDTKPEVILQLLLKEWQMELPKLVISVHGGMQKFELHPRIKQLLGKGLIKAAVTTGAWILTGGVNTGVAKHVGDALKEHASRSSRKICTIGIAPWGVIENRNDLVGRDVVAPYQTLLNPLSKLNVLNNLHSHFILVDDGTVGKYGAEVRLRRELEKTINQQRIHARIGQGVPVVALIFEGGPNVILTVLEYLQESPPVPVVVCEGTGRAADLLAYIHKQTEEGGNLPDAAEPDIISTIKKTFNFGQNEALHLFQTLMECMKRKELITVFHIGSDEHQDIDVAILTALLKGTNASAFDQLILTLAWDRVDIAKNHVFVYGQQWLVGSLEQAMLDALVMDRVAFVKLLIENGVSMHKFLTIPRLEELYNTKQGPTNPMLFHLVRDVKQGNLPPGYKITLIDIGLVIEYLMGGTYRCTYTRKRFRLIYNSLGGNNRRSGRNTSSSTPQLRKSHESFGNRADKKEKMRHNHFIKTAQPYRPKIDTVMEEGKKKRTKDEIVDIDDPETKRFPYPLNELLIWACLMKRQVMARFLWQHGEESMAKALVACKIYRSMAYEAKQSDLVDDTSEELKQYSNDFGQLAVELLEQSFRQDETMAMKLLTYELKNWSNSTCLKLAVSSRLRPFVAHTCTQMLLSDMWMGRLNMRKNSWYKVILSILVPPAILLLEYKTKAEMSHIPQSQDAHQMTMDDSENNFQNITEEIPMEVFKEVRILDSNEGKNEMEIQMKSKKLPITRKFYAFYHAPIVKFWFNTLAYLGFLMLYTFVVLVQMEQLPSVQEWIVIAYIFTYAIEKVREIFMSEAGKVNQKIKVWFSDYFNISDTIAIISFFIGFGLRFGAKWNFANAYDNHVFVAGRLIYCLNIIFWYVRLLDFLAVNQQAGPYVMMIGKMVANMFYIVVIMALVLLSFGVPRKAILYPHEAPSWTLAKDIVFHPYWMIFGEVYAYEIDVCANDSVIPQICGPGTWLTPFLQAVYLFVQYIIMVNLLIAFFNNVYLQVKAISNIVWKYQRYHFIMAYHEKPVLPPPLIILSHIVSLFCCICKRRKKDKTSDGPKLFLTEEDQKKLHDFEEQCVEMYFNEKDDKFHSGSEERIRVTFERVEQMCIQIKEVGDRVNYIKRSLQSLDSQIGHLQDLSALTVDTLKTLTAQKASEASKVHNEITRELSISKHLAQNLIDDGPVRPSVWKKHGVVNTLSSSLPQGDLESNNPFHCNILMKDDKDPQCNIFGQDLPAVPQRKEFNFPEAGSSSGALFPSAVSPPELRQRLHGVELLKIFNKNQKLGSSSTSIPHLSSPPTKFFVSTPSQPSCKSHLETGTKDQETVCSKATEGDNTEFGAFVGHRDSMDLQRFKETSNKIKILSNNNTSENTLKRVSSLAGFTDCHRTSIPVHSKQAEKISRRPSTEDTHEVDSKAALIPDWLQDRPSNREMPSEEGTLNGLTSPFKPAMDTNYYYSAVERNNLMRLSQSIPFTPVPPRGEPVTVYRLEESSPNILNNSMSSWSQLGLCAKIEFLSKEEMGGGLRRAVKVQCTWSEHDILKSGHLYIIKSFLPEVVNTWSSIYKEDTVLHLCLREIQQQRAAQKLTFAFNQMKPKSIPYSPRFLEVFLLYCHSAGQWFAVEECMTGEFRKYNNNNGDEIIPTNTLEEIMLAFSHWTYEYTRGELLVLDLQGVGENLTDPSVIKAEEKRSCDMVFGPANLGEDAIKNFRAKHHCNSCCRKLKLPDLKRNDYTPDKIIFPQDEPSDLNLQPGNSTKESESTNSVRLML
T16 sequence (P23458 whole entry): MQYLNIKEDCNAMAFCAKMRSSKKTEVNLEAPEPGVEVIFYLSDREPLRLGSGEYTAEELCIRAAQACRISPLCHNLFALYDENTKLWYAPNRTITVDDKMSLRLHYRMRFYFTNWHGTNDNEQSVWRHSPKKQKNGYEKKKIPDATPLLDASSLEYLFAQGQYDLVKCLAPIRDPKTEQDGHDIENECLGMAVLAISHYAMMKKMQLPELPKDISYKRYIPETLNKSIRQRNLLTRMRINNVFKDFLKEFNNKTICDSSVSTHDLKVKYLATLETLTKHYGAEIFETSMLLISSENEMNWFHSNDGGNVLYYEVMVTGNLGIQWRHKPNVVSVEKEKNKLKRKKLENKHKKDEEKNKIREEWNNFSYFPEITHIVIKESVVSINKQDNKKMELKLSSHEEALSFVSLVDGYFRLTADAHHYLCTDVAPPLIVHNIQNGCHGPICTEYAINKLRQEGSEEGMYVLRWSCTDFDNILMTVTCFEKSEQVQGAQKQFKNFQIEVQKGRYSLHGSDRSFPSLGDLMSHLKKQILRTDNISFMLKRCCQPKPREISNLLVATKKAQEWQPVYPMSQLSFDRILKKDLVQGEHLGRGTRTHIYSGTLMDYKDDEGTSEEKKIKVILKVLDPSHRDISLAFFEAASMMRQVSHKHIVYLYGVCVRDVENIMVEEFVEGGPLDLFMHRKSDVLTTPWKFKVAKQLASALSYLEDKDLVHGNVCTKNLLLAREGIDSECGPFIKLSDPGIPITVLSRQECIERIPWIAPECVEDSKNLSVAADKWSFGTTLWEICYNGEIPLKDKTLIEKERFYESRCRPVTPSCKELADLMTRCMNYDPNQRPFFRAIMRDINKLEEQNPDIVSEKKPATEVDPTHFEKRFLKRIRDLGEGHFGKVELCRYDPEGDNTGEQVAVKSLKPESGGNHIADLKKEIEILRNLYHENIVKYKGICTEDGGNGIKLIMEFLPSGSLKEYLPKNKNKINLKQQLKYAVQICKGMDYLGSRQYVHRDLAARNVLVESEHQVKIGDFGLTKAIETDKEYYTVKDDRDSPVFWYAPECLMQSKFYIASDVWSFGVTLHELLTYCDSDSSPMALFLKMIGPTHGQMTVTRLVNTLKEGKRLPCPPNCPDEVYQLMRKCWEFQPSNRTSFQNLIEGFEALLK
T10 sequence (Q06187 whole entry): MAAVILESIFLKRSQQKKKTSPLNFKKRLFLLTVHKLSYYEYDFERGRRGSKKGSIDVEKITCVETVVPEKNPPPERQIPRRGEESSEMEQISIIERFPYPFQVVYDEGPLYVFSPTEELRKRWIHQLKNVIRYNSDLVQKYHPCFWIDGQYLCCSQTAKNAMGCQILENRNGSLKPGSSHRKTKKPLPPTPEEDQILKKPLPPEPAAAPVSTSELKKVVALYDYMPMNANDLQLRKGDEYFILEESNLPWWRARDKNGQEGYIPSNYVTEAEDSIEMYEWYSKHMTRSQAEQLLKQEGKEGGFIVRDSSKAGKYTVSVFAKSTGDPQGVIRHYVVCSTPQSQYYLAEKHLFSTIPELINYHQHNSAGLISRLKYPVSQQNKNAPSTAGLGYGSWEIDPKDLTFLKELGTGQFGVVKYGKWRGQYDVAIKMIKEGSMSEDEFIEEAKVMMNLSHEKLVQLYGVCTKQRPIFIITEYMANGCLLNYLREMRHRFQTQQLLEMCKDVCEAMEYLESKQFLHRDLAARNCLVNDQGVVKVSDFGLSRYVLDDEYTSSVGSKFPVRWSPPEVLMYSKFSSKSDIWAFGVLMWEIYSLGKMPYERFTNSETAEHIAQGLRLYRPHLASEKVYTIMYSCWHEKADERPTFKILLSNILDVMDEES
T12 sequence (P10721 26-976 V559D): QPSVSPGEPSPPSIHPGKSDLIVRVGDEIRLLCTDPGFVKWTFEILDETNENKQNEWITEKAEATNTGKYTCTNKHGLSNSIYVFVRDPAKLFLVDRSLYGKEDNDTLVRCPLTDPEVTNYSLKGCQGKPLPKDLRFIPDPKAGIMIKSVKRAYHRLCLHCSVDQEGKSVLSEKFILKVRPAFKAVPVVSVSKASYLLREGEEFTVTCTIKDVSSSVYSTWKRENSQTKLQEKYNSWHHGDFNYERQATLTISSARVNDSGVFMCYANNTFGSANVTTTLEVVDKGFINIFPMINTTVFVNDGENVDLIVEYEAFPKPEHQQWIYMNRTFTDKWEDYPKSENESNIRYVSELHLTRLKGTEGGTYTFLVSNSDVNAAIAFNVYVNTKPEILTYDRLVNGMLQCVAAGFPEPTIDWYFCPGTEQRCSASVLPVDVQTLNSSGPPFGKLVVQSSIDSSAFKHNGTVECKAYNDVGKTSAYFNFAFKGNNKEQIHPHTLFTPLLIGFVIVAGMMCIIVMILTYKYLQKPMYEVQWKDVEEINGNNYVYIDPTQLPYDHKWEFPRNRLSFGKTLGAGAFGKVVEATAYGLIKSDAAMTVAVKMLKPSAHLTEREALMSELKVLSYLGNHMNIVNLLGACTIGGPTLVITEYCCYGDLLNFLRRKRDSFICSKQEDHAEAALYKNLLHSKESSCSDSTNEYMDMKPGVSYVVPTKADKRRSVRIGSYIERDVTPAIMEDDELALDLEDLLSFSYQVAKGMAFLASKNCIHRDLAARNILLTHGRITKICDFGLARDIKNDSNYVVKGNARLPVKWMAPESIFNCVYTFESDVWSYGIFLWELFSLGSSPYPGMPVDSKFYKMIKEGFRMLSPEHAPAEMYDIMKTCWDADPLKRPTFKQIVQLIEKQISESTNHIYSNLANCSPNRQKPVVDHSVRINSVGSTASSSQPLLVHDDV
T9 sequence (Q16539 whole entry): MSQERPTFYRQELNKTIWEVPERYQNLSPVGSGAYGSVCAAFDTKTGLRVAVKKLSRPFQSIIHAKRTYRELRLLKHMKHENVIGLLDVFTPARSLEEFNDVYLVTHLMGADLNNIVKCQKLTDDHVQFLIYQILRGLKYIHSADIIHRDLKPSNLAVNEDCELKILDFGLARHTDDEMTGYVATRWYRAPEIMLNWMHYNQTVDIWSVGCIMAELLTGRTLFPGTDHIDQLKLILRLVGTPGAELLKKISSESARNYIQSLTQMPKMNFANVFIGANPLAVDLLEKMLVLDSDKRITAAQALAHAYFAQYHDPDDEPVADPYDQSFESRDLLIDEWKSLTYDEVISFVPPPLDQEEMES

With `CC(C)c1cc(-c2n[nH]c(=O)n2-c2ccc3c(ccn3C)c2)c(O)cc1O` [Ganetespib (STA9090)], the remaining activity at 10 µM at 382 unique human kinases [1] came to 92.2%; on 382 unique human kinases [2] it was 87.2%; on 382 unique human kinases [3], 79.1%; at 382 unique human kinases [4] it was 108%; at 382 unique human kinases [5], 90%; at 382 unique human kinases [6], 89.2%. Also, the remaining activity at 10 µM on 382 unique human kinases [7] was determined as 87.3%; on 382 unique human kinases [8] it was 82.2%; on 382 unique human kinases [9], 89.6%.

In the case of `CC(C)c1cc(-c2n[nH]c(=O)n2-c2ccc3c(ccn3C)c2)c(O)cc1O` [Ganetespib], the remaining activity at 10 µM is 56% on 382 unique human kinases [10]; 57.1% at 382 unique human kinases [11]; 40.7% at 382 unique human kinases [12]; 95.7% at 382 unique human kinases [13]; 9.72% at 382 unique human kinases [14]; 94.8% at 382 unique human kinases [15]. For the same compound, the results for the remaining activity at 10 µM on 382 unique human kinases [16] and at 382 unique human kinases [17] were 95% and 91.8%, respectively.

On to `CCNC(=O)c1noc(-c2cc(C(C)C)c(O)cc2O)c1-c1ccc(CN2CCOCC2)cc1` [Luminespib (AUY-922)], for which the “% Enzyme Activity (relative to DMSO controls)” value worked out at 98.95% at 382 unique human kinases [1]; 114.11% on 382 unique human kinases [2]; 99.03% on 382 unique human kinases [3]; 105.32% on 382 unique human kinases [4]; 108.40% on 382 unique human kinases [5]; 102.88% at 382 unique human kinases [6]. Moreover, the “% Enzyme Activity (relative to DMSO controls)” value at 382 unique human kinases [7] came to 94.10%; on 382 unique human kinases [8], 102.34%; on 382 unique human kinases [9] it was 90.33%. In addition, the remaining activity at 10 µM was 101% at 382 unique human kinases [1]; 116% at 382 unique human kinases [2]; 99.6% on 382 unique human kinases [3]; 107% on 382 unique human kinases [4]; 110% on 382 unique human kinases [5]; 105% at 382 unique human kinases [6]. Moreover, the remaining activity at 10 µM at 382 unique human kinases [7] stood at 94.4%; on 382 unique human kinases [8], 103%; on 382 unique human kinases [9] it was 95.1%.

Take `CCNC(=O)c1noc(-c2cc(C(C)C)c(O)cc2O)c1-c1ccc(CN2CCOCC2)cc1` [Luminespib]: the “% Enzyme Activity (relative to DMSO controls)” value at 382 unique human kinases [10] came out at 74.40%; on 382 unique human kinases [11], 97.09%; at 382 unique human kinases [12] it was 69.57%; at 382 unique human kinases [13], 98.60%; on 382 unique human kinases [14], 9.69%; at 382 unique human kinases [15], 91.72%. In addition, the “% Enzyme Activity (relative to DMSO controls)” value turned out to be 94.10% on 382 unique human kinases [16] and 93.74% on 382 unique human kinases [17]. The remaining activity at 10 µM on 382 unique human kinases [10] is 74.9%; at 382 unique human kinases [11] it was 99.6%; on 382 unique human kinases [12] it was 69.6%; on 382 unique human kinases [13], 99.3%; on 382 unique human kinases [14] it was 9.81%; on 382 unique human kinases [15], 92.5%. The remaining activity at 10 µM at 382 unique human kinases [16] is 96.1%; at 382 unique human kinases [17], 94%.
